Results from article PMC12645998, “Optimization of VE607 to generate analogs with improved neutralization activities against SARS-CoV-2 variants” (Journal of Virology, 2025).
“And” between values parts separate entries of the source, which are not always exact repeats. Equal values may be shown once. Read-outs that look alike come from different tables or passages of the source.

Key:
[1] = test system: SARS-CoV-2 HK.3 Spike pseudovirus; assay: organism not typed; format: cell-based; conditions: read-out: IC50 HK.3
[2] = test system: pseudoviral particles bearing the Spike glycoprotein from SARS-CoV-2; assay: microbe, parasite or virus in culture; format: cell-based; conditions: pseudovirus, 293T-ACE2 cells, compounds up to 100 µM
[3] = test system: authentic SARS-CoV-2 XBB.1; assay: microbe, parasite or virus in culture; format: cell-based; conditions: Severe acute respiratory syndrome coronavirus 2, Vero C1008, read-out: IC50 authentic SARS-CoV-2 XBB.1
[4] = test system: SARS-CoV-2 BA.4/5 Spike pseudovirus; assay: organism not typed; format: cell-based; conditions: read-out: IC50 BA.4/5
[5] = test system: SARS-CoV-2 JN.1 Spike pseudovirus; assay: organism not typed; format: cell-based; conditions: read-out: IC50 JN.1
[6] = test system: SARS-CoV-2 KP.3.1.1 Spike pseudovirus; assay: organism not typed; format: cell-based; conditions: read-out: IC50 KP.3.1.1
[7] = test system: SARS-CoV-2 XBB.1.16 Spike pseudovirus; assay: organism not typed; format: cell-based; conditions: read-out: IC50 XBB.1.16
[8] = test system: SARS-CoV-2 B.1.1.7 Spike pseudovirus; assay: organism not typed; format: cell-based; conditions: read-out: IC50 B.1.1.7
Vero-E6 cells = assay: Cell viability test (CellTiter-Glo), Vero-E6; conditions: concentrations up to 100 µM, 48 h
[9] = test system: SARS-CoV-2 XEC Spike pseudovirus; assay: organism not typed; format: cell-based; conditions: read-out: IC50 XEC
[10] = test system: SARS-CoV-2 (Wuhan strain) ectodomain SΔTM trimers; conditions: 0.1 µM labeled Spike; 50 µM compound, 0.3 µM CV3-13, 0.6 µM ACE2; unbound Spike 40% ± 2%
[11] = in vivo
293T-ACE2 cells = assay: Cell viability test (CellTiter-Glo), 293T-ACE2; conditions: concentrations up to 100 µM, 48 h
[12] = test system: SARS-CoV-2 EG.5.1 Spike pseudovirus; assay: organism not typed; format: cell-based; conditions: read-out: IC50 EG.5.1
[13] = test system: pseudoviral particles carrying SARS-CoV-1 S; assay: microbe, parasite or virus in culture; format: cell-based
[14] = test system: SARS-CoV-2 BA.2.86 Spike pseudovirus; assay: organism not typed; format: cell-based; conditions: read-out: IC50 BA.2.86
SARS-CoV-2WA1-nLuc = test system: SARS-CoV-2WA1-nLuc; set-up: species or system K18-hACE2 mice; conditions: mouse, in vivo
[15] = test system: SARS-CoV-2 XBB.1.5 Spike pseudovirus; assay: organism not typed; format: cell-based; conditions: read-out: IC50 XBB.1.5
[16] = test system: pseudoviral particles carrying VSV-G; assay: microbe, parasite or virus in culture; format: cell-based; conditions: Vesicular stomatitis virus
[17] = Severe acute respiratory syndrome coronavirus 2, 293T/ACE2, read-out: IC50 SARS-CoV-2, Table 1
[18] = Severe acute respiratory syndrome coronavirus, 293T/ACE2, read-out: IC50 SARS-CoV-1
[19] = 293T/ACE2, read-out: IC50 VSV-G

Compound | IC50 [1] [nM] | IC50 [2, 17] [nM] | IC50 [3] [nM] | IC50 [4] [nM] | IC50 [5] [nM] | IC50 [6] [nM] | IC50 [7] [nM] | IC50 [8] [nM] | Toxicity in Vero-E6 cells (Vero-E6 cells) | IC50 [9] [nM] | RBD-up conformation occupancy [10] | Toxicity in 293T-ACE2 cells (293T-ACE2 cells) | IC50 [12] [nM] | IC50 [13, 18] [nM] | IC50 ([13]; read-out: IC50 SARS-CoV-1) | IC50 [14] [nM] | IC50 [15] [nM] | IC50 [16, 19] [nM] | IC50 ([16]; 293T/ACE2, read-out: IC50 VSVG) [nM] | other results
CN(C)C[C@@H](O)COc1cc(Br)cc(OC[C@H](O)CN(C)C)c1 [Compound 27] | 730 | 440 | 24000 | 1450 | 1340 | 2380 | 1800 | 1120 | no toxicity | 1790 | 55% ± 2% | no toxicity | 1130 | 620 | 625 nM and 930 nM | 3300 | 1040 | 52400 | > 100000 | IC50 ([2]; read-out: IC50 SARS-CoV-2, Table 1): 437 nM; Concentration in plasma ([11]; both, K18-hACE2, mouse): ~ 1.5 µM; Plasma retention ([11]; mouse): short plasma retention; Brain penetration ([11]; mouse, ip): minimal penetration in the brain; Protection / survival outcome (SARS-CoV-2WA1-nLuc): succumbed to virus-induced mortality; Survival extended compared to the control group (SARS-CoV-2WA1-nLuc): 1 days
CN1CCN(C[C@@H](O)COc2cc(Br)cc(OC[C@H](O)CN3CCN(C)CC3)c2)CC1 [Compound 30] | 540 | 1480 | 38000 | 4880 | 3900 | 2160 | 1400 | 1260 | no toxicity | 3090 | – | no toxicity | 1500 | 1980 | 1310 nM | 3520 | 1050 | 80800 | > 100000 | –
CCN(C)C[C@@H](O)COc1cc(Br)cc(OC[C@H](O)CN(C)CC)c1 [Compound 33] | 2350 | 1710 | 17000 | 2810 | 2020 | 2990 | 2130 | 1440 | no toxicity | 2390 | 61% ± 2% | no toxicity | 1820 | 1440 | 1300 nM | 2970 | 2430 | > 100000 | > 100000 | –
ACE2 | – | – | – | – | – | – | – | – | – | – | 67% ± 2% | – | – | – | – | – | – | – | – | –
